The results in this text go back to patent US11344652B2, “Ionic liquids that sterilize and prevent biofilm formation in skin wound healing devices” (The Arizona Board of Regents on Behalf of Northern Arizona …, priority 2016, dated 2022).

The nature of this data set: Physical characterization of CAGE at 25° C. Type of data set: physicochemical. The procedure:
Physical characterization at 25° C. was in good agreement with published values and was as follows: density, 0.989±0.001 g mL^−1; and conductivity, 0.0427±0.0005 mS cm^−1.
Physicochemical properties were identical to those previously published confirming purity (Zakrewsky et al., PNAS, 2014, 111, 13313; incorporated by reference herein in its entirety, and for the disclosure referenced herein). CAGE has unique properties based upon the 1:1:1 ratio of cation:anion:protonated acid. This is important since it gives rise to the low conductivity determined for CAGE (0.043 mS cm^−1) and is a potential indicator of anti-biofilm efficacy but, also provides insight to minimized skin irritation potential.

Values joined by “and” are separate entries in the source; they are usually repeats but may differ in a detail not shown here. Equal values may be shown once.

Take choline geranate [CAGE]: the conductivity was 0.0427±0.0005 mS cm^−1 and 0.043 mS cm^−1; the density turned out to be 0.989 ± 0.001 g/mL.
